Results: US10098878B2, “HIF-2α inhibitors for treating iron overload disorders” (The Board of Regents of the University of Texas System, priority 2014, dated 2018)
Read-outs that look alike come from different tables or passages of the source.

How the values were obtained:
[1] = test system: 786-O-Hif-Luc cells; assay: Luciferase Assay; type: cell-based; settings: read-out: Luciferase EC50
Protocol: A pool of infected cells were then selected against 2 μg/mL of puromycin (P8833, Sigma) for 10 days followed by limited dilution to select single clones.
Each concentration was tested in triplicate. After about 24 hours, luciferase activity was determined using ONE-Glo Luciferase Assay Reagent (E6110, Promega) following the manufacturer's recommended procedure. EC50 were calculated by using Dotmatics software.

[2] = target: T1, HIF-2α HIS TAG-PASB Domain (Homo sapiens, UniProt Q99814); assay: HIF-2α Scintillation Proximity Assay (SPA); type: binding; settings: 100 nM HIF-2α HIS TAG-PASB Domain
T1 construct: 100 nM HIF-2α HIS TAG-PASB Domain
In short: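 IC50 values rest on percent inhibition, where the sample signal is scaled between high and low controls. Wells contain about 100 μL: compound dispensed as 2 μL of DMSO solution, 88 μL protein-probe mix and 10 μL of beads.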

[3] = 24 h, 786-O-Hif-Luc cells, about 24 hours
[4] = 150 nM Compound 211 probe, read-out: SPA IC50
[5] = SPA IC50, 150 nM Compound 211 probe
[6] = 786-O-Hif-Luc cells, about 24 hours

T1 sequence (Q99814 240-350 limits assumed): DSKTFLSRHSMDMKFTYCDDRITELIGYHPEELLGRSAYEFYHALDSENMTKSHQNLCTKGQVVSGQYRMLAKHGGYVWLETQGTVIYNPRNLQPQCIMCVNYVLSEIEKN

Row | SMILES | EC50 [1, 3] [µM] | IC50 [2, 4] [µM] | further results
1 | C[C@@H]1Cc2c(Oc3cc(F)cc(C#N)c3)ccc(S(C)(=O)=O)c2[C@@H]1O [Compound 65, 3-fluoro-5-(((1R,2R)-1-hydroxy-2-methyl-7-(methylsulfonyl)-2,3-dihydro-1H-inden-4-yl)oxy)benzonitrile] | 2.1 | 1.85 | 
2 | CS(=O)(=O)c1ccc(Oc2cc(F)cc(C#N)c2)c2c1[C@H](O)C(F)(F)[C@@H]2O [Compound 76, 3-[(1S,3R)-2,2-difluoro-1,3-dihydroxy-7-methylsulfonyl-indan-4-yl]oxy-5-fluoro-benzonitrile] | 0.631 | 0.15 | 
3 | CS(=O)(=O)c1ccc(Oc2cncc(C#N)c2)c2c1[C@H](O)[C@H](F)C2 [Compound 77, 5-(((1S,2R)-2-fluoro-1-hydroxy-7-(methylsulfonyl)-2,3-dihydro-1H-inden-4-yl)oxy)nicotinonitrile] | 1.07 | 1.8 | 
4 | CS(=O)(=O)c1ccc(Oc2cncc(Br)c2)c2c1[C@H](O)C(F)(F)C2 [Compound 88, (S)-4-((5-Bromopyridin-3-yl)oxy)-2,2-difluoro-7-(methylsulfonyl)-2,3-dihydro-1H-inden-1-ol] | 0.475 | 0.054 | 
5 | N#Cc1cc(F)cc(Oc2ccc(S(N)(=O)=O)c3c2C[C@@H](F)[C@H]3O)c1 [Compound 98, (2R,3S)-7-(3-cyano-5-fluoro-phenoxy)-2-fluoro-3-hydroxy-indane-4-sulfonamide] | 0.224 | 0.073 | 
6 | CS(=O)(=O)c1ccc(Oc2cc(F)cc(C#N)c2)c2c1[C@H](N)C(F)(F)[C@@H]2F [Compound 110] | 1.65 | 0.51 | 
7 | N#Cc1c(Oc2cc(F)cc(Cl)c2)ccc2c1[C@@H](O)CS2(=O)=O [Compound 112, (3R)-5-(3-chloro-5-fluoro-phenoxy)-3-hydroxy-1,1-dioxo-2,3-dihydrobenzothiophene-4-carbonitrile] | 0.226 | 0.0465 | 
8 | N#Cc1c(Oc2cc(F)cc(Cl)c2)ccc2c1C(O)C(F)(F)S2(=O)=O (stereo not drawn) [Compound 120, 5-(3-chloro-5-fluorophenoxy)-2,2-difluoro-3-hydroxy-2,3-dihydrobenzo[b]thiophene-4-carbonitrile 1,1-dioxide] |  |  | EC50 [1]: 4.17 µM; IC50 [2, 5]: 0.045 µM
9 | NC1c2cc(Oc3cc(F)cc(Cl)c3)ccc2S(=O)(=O)C1(F)F (stereo not drawn) [Compound 122, 3-Amino-5-(3-chloro-5-fluorophenoxy)-2,2-difluoro-2,3-dihydrobenzo[b]thiophene 1,1-dioxide] | 3.72 | 0.2 | 
10 | Cc1c(Oc2cc(F)cc(Cl)c2)ccc2c1C(O)C(F)(F)S2(=O)=O (stereo not drawn) [Compound 123, 5-(3-Chloro-5-fluorophenoxy)-2,2-difluoro-3-hydroxy-4-methyl-2,3-dihydrobenzo[b]thiophene 1,1-dioxide] |  |  | EC50 [1]: 0.449 µM; IC50 [2, 5]: 0.015 µM
11 | O=S1(=O)CC(O)c2c1ccc(Oc1cc(F)cc(Cl)c1)c2C(F)F (stereo not drawn) [Compound 125, 5-(3-Chloro-5-fluorophenoxy)-4-(difluoromethyl)-3-hydroxy-2,3-dihydrobenzo[b]thiophene 1,1-dioxide] | 0.725 | 0.1 | 
12 | NC1CS(=O)(=O)c2ccc(Oc3cc(F)cc(Cl)c3)c(C(F)F)c21 (stereo not drawn) [Compound 127, 3-Amino-5-(3-chloro-5-fluorophenoxy)-4-(difluoromethyl)-2,3-dihydrobenzo[b]thiophene 1,1-dioxide] | 6.89 | 7.88 | 
13 | O=S1(=O)CC(O)c2c1ccc(Oc1cc(F)cc(F)c1)c2C(F)F (stereo not drawn) [Compound 134, 4-(Difluoromethyl)-5-(3,5-difluorophenoxy)-3-hydroxy-2,3-dihydrobenzo[b]thiophene 1,1-dioxide] | 0.719 | 0.077 | 
14 | [2H]C1(O)c2c(ccc(Oc3cc(F)cc(Cl)c3)c2C(F)F)S(=O)(=O)C1(F)F (stereo not drawn) [Compound 135, 5-(3-Chloro-5-fluorophenoxy)-4-(difluoromethyl)-2,2-difluoro-3-hydroxy-2,3-dihydrobenzo[b]thiophene 1,1-dioxide-3-d] |  |  | EC50 [1, 6]: 0.01 µM; IC50 [2, 5]: < 0.005 µM
15 | N#Cc1cc(F)cc(Oc2ccc3c(c2C(F)F)C(O)CS3(=O)=O)c1 (stereo not drawn) [Compound 138, 3-((4-(Difluoromethyl)-3-hydroxy-1,1-dioxido-2,3-dihydrobenzo[b]thiophen-5-yl)oxy)-5-fluorobenzonitrile] | 1.43 | 0.7 | 
16 | NC1c2c(ccc(Oc3cc(F)cc(F)c3)c2Br)S(=O)(=O)C1(F)F (stereo not drawn) [Compound 140, 3-Amino-4-bromo-5-(3,5-difluorophenoxy)-2,2-difluoro-2,3-dihydrobenzo[b]thiophene 1,1-dioxide] |  |  | EC50 ([1]; 24 h): 1.7 µM; IC50 [2, 5]: < 0.005 µM
17 | COCCNC1c2c(ccc(Oc3cc(F)cc(F)c3)c2Br)S(=O)(=O)C1(F)F (stereo not drawn) [Compound 143, 4-Bromo-5-(3,5-difluorophenoxy)-2,2-difluoro-3-((2-methoxyethyl)amino)-2,3-dihydrobenzo[b]thiophene 1,1-dioxide] | 1.78 | < 0.005 | 
18 | O=S1(=O)c2ccc(Oc3cncc(Cl)c3)c(C(F)F)c2C(O)C1(F)F (stereo not drawn) [Compound 145, 5-((5-Chloropyridin-3-yl)oxy)-4-(difluoromethyl)-2,2-difluoro-3-hydroxy-2,3-dihydrobenzo[b]thiophene 1,1-dioxide] |  |  | EC50 [1]: 0.149 µM; IC50 [2, 5]: 0.229 µM
19 | N#Cc1cncc(Oc2ccc3c(c2C(F)F)C(O)C(F)(F)S3(=O)=O)c1 (stereo not drawn) [Compound 147, 5-((4-(Difluoromethyl)-2,2-difluoro-3-hydroxy-1,1-dioxido-2,3-dihydrobenzo[b]thiophen-5-yl)oxy)nicotinonitrile] |  |  | EC50 [1]: 0.17 µM; IC50 [2, 5]: 0.12 µM
20 | N#Cc1cc(F)cc(Oc2ccc3c(c2C(F)F)C(=O)C(F)(F)S3(=O)=O)c1 [Compound 149, 3-((4-(Difluoromethyl)-2,2-difluoro-1,1-dioxido-3-oxo-2,3-dihydrobenzo[b]thiophen-5-yl)oxy)-5-fluorobenzonitrile] |  |  | EC50 [1, 6]: 2.79 µM; IC50 [2, 5]: 2.4 µM
21 | N#Cc1cc(F)cc(Oc2ccc3c(c2CF)C(O)C(F)(F)S3(=O)=O)c1 (stereo not drawn) [Compound 152, 3-((2,2-Difluoro-4-(fluoromethyl)-3-hydroxy-1,1-dioxido-2,3-dihydrobenzo[b]thiophen-5-yl)oxy)-5-fluorobenzonitrile] | 0.126 | 0.086 | 
22 | N#Cc1c(Oc2cc(F)cc(F)c2)ccc2c1C(O)C(F)S2(=O)=O (stereo not drawn) [Compound 154, 5-(3,5-Difluorophenoxy)-2-fluoro-3-hydroxy-2,3-dihydrobenzo[b]thiophene-4-carbonitrile 1,1-dioxide] | 0.793 | 1.64 | 
23 | Cc1cc(C#N)cc(Oc2ccc3c(c2C(F)F)[C@@H](O)C(F)(F)S3(=O)=O)c1 [Compound 156, (R)-3-((4-(Difluoromethyl)-2,2-difluoro-3-hydroxy-1,1-dioxido-2,3-dihydrobenzo[b]thiophen-5-yl)oxy)-5-methylbenzonitrile] | 0.1 | < 0.005 | 
24 | N#CN=S1(=O)CC(O)c2c1ccc(Oc1cc(F)cc(F)c1)c2C(F)F (stereo not drawn) [Compound 158, N-(4-(Difluoromethyl)-5-(3,5-difluorophenoxy)-3-hydroxy-1-oxido-2,3-dihydro-1λ^4-benzo[b]thiophen-1-ylidene)cyanamide] | 1.88 | 1.47 | 
